Assay results: PMC4461516 (Bioorganic & medicinal chemistry, 2015)
Where two headings read alike, the source gives them in different places.

Experiments:
[1] = tested on: subcutaneous Metrazol (scMet) seizure; settings: cited from earlier work
[2] = biological target: T1, Na+ currents in CAD cells (mostly Nav1.7) (Mus musculus, UniProt Q62205); settings: read-out: Slow inactivation IC50, at −50 mV; cited from earlier work
behavioral toxicity = settings: rat, po; cited from earlier work
[3] = tested on: maximal electroshock seizure; test: Maximal electroshock seizure; format: in vivo, mice; settings: Mus musculus, ip, read-out: MES ED50
[4] = tested on: 6 Hz (32 mA) psychomotor seizure; test: 6 Hz; format: in vivo, mice; settings: Mus musculus, ip, read-out: 6 Hz ED50
[5] = Rotorod test for neurological impairment, mice ip; settings: mouse, in vivo
[6] = tested on: 6 Hz (32 mA) psychomotor seizure; settings: mice, ip, time (h) in brackets; cited from earlier work
[7] = tested on: maximal electroshock seizure; settings: rat, po, cited from earlier work
[8] = tested on: voltage-gated sodium channels (Nav1.1, Nav1.2, Nav1.3, Nav1.6) in rat embryonic cortical neurons; test: Whole-cell patch-clamp of Na+ currents in rat embryonic cortical neurons; format: cell-based; settings: 10 μM, vs 0.1% DMSO control
[9] = biological target: T1, Na+ currents in CAD cells (mostly Nav1.7); test: Whole-cell patch-clamp of Na+ currents in CAD cells; format: cell-based; settings: any concentration tested, control V1/2 −19.5 ± 2.8 mV
CYP1A2 = biological target: T2, CYP1A2 (Homo sapiens, UniProt P05177); test: CYP450 inhibition panel: CYP1A2; format: in vitro ADME; settings: 10 μM; data not shown
T2 sequence (P05177 1-516): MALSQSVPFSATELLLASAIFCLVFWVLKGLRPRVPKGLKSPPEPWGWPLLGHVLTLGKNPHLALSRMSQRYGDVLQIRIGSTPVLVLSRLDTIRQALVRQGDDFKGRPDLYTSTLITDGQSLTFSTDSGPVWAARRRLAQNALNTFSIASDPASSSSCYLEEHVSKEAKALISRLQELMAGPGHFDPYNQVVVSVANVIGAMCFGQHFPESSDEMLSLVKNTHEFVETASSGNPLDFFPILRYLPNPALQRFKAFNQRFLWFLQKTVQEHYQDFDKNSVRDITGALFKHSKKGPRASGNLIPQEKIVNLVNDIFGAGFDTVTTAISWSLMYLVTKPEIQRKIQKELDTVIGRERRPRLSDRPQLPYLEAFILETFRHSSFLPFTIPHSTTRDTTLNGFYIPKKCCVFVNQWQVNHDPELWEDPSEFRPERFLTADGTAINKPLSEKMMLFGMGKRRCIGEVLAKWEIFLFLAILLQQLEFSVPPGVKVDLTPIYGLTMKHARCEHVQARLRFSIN

CYP2B6 = biological target: T3, CYP2B6 (Homo sapiens, UniProt P20813); test: CYP450 inhibition panel: CYP2B6; format: in vitro ADME; settings: 10 μM; data not shown
T3 sequence (P20813 1-491): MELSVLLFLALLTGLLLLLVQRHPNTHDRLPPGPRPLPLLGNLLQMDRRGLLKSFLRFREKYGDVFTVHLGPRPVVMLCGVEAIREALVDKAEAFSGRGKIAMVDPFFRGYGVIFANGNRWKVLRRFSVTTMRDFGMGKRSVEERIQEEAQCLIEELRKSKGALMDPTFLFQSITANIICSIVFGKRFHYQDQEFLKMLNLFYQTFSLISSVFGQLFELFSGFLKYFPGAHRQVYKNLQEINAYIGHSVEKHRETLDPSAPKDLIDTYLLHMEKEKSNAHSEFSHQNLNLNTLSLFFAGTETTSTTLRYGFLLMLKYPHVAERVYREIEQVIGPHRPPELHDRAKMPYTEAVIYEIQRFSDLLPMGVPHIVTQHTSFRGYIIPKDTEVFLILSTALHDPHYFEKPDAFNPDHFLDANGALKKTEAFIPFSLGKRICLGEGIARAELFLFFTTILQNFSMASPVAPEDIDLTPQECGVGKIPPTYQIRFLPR

CYP2C8 = biological target: T4, CYP2C8 (Homo sapiens, UniProt P10632); test: CYP450 inhibition panel: CYP2C8; format: in vitro ADME; settings: 10 μM; data not shown
T4 sequence (P10632 1-490): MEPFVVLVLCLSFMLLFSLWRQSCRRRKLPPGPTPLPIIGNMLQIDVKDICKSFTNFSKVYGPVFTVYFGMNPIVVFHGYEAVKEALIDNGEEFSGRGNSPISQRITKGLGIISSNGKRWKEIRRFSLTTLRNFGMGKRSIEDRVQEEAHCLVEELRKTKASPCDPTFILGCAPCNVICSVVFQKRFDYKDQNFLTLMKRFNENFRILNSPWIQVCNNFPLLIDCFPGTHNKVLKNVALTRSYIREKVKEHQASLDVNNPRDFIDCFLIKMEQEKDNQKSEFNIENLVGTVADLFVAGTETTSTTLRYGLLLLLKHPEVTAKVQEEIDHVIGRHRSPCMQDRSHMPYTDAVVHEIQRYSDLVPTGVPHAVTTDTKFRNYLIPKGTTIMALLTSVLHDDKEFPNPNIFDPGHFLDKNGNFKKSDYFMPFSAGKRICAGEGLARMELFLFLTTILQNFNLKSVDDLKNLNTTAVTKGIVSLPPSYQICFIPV

CYP2C9 = CYP2C9 (Homo sapiens, UniProt P11712); test: CYP450 inhibition panel: CYP2C9; format: in vitro ADME; settings: 10 μM; data not shown
CYP2C9, sequence (P11712 whole entry): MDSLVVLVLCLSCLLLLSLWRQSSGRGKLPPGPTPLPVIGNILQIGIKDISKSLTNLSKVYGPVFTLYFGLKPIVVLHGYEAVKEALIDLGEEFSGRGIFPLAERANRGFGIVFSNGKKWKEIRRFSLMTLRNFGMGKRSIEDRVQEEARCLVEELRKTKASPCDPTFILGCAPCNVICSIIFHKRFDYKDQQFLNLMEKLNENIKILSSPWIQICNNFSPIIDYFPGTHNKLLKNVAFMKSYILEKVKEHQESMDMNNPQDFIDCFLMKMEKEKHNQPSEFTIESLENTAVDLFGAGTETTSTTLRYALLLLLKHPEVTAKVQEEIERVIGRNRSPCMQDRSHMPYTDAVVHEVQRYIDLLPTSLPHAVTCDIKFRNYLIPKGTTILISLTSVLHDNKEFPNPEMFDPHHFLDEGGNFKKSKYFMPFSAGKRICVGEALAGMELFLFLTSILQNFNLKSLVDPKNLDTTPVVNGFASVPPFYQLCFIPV

CYP2C19 = CYP2C19 (Homo sapiens, UniProt P33261); test: CYP450 inhibition panel: CYP2C19; format: in vitro ADME; settings: 10 μM; data not shown
CYP2C19, sequence (P33261 whole entry): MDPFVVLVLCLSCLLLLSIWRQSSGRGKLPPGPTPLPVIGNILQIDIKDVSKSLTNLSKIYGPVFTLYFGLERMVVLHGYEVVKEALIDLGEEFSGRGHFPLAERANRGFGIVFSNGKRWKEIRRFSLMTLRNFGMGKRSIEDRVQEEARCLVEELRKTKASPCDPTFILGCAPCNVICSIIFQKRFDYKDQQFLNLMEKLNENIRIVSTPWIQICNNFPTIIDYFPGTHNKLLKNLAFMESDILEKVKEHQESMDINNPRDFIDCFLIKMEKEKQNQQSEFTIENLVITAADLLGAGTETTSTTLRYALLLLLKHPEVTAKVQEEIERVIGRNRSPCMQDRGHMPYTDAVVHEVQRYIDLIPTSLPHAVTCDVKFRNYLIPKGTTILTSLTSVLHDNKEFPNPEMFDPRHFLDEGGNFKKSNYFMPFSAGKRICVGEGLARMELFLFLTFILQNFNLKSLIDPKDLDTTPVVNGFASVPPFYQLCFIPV

CYP2D6 = CYP2D6 (Homo sapiens, UniProt P10635); test: CYP450 inhibition panel: CYP2D6; format: in vitro ADME; settings: 10 μM; data not shown
CYP2D6, sequence (P10635 whole entry): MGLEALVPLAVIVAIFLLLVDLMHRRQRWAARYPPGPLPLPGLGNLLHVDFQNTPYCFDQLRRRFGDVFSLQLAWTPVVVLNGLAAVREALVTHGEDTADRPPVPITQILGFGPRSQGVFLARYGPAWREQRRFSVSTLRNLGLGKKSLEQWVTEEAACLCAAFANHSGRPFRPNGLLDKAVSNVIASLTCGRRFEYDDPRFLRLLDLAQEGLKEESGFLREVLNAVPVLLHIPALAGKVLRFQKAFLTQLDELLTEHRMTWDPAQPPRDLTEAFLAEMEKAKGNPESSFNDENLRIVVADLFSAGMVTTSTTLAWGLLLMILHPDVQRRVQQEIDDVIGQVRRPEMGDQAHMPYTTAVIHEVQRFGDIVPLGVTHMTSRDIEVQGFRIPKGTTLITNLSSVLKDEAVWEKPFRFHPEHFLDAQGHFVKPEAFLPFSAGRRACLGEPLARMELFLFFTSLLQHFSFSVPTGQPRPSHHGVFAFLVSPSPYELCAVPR

CYP3A4/5 = test: CYP450 inhibition panel: CYP3A4/5; format: in vitro ADME, human; settings: 10 μM; data not shown
hERG K+ channel = hERG K+ channel (Homo sapiens, UniProt Q12809); test: hERG K+ channel activity; format: cell-based; settings: 30 μM; Patch Express; data not shown
hERG K+ channel, sequence (Q12809 whole entry): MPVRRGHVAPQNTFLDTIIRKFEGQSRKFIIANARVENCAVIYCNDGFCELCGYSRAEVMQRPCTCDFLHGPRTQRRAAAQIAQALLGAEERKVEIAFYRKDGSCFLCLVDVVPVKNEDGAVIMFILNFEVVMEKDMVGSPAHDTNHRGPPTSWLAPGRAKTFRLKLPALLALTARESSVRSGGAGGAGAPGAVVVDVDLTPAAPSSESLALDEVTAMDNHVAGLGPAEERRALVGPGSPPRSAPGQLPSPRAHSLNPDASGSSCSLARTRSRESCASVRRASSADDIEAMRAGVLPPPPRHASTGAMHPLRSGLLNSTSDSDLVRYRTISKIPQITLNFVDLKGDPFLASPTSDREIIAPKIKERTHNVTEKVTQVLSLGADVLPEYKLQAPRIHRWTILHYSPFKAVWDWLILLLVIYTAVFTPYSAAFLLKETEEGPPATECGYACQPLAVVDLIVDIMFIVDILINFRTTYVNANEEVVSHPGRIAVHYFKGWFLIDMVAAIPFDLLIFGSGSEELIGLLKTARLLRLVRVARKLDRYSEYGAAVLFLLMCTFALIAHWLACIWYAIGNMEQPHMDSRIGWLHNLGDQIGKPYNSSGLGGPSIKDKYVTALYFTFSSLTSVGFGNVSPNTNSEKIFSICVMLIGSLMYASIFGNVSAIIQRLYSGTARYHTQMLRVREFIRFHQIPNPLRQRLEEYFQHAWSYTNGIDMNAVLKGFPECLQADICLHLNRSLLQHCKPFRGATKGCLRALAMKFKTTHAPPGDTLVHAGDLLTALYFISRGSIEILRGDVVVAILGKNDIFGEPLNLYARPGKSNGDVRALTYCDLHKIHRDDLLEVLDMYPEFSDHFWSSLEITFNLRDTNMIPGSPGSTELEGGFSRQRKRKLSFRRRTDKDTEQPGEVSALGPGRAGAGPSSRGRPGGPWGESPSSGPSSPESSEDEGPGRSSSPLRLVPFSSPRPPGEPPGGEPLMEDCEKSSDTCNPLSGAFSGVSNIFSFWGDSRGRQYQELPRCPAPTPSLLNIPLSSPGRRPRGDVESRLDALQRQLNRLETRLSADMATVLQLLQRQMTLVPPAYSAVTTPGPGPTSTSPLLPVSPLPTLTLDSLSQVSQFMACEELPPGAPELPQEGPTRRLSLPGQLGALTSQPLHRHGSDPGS

[10] = tested on: maximal electroshock seizure; settings: mice, ip; 95% CI in parentheses; cited from earlier work
[11] = tested on: maximal electroshock seizure; settings: rat, ip; 95% CI in parentheses; cited from earlier work

T1 sequence (Q62205 whole entry): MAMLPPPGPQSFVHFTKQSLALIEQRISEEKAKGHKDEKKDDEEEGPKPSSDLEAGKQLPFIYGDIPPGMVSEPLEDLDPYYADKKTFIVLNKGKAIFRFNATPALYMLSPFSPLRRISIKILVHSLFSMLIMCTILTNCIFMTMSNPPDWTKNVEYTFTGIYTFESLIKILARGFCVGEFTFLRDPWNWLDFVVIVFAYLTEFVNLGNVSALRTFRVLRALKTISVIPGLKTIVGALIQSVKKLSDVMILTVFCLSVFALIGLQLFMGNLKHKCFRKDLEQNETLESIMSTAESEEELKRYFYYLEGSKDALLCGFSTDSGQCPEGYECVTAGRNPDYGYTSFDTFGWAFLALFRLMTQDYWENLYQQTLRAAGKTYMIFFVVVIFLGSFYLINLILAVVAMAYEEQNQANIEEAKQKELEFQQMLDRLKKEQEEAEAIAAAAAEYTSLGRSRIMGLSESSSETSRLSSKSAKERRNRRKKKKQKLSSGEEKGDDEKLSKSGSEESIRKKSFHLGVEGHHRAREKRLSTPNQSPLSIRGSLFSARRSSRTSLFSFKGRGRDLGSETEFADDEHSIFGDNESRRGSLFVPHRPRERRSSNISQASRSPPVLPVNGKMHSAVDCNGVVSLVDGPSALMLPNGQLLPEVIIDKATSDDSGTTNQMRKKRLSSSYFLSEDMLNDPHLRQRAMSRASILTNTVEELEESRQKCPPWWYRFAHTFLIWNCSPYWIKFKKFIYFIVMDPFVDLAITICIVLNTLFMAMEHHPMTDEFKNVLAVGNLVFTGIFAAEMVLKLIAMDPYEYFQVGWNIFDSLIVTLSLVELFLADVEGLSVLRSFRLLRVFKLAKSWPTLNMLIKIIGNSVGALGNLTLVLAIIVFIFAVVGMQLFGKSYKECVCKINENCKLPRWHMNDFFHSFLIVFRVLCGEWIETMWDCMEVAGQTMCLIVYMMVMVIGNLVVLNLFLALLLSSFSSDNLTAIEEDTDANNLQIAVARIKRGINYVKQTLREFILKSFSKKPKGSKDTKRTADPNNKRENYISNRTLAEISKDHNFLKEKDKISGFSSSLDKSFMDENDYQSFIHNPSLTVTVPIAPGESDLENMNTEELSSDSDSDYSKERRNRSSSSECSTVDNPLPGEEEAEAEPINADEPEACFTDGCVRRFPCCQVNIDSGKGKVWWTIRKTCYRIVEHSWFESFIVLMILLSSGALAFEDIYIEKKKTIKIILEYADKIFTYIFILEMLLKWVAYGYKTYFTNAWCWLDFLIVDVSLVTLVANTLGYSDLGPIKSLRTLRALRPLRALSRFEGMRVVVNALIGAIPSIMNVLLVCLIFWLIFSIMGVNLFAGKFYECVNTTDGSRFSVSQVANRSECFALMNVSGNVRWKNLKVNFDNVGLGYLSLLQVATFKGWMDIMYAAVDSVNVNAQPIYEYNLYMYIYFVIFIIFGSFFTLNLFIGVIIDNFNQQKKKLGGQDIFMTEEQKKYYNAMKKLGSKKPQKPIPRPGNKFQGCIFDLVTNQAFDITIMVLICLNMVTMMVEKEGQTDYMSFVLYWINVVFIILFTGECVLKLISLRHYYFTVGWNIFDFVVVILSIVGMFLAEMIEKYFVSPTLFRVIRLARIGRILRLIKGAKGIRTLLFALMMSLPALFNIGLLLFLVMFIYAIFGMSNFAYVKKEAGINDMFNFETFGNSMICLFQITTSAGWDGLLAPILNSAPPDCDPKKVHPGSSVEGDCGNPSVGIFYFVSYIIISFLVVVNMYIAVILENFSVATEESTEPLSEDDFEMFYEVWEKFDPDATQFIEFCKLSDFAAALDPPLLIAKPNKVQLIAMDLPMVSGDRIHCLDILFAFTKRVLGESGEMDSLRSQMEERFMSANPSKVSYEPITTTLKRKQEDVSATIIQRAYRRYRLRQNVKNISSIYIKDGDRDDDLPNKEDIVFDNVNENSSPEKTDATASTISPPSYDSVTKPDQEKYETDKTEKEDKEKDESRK

**Q.** With `COC[C@@H](NC(C)=O)C(=O)NCc1ccccc1` [(R)-1, (R)-N-benzyl 2-N-acetamido-3-methoxypropionamide] as the molecule, how does the “scMet seizure model: activity” value [1] read?
**A.** no activity

**Q.** What about the IC50 [2] of the same molecule?
**A.** 85 µM

**Q.** And the “Tox TD50 (behavioral toxicity)” value (behavioral toxicity)?
**A.** >500 [0.5] mg/kg

**Q.** Which ED50 [3] does the source give for `COC[C@@H](NC(C)=O)C(=O)NCc1ccc(Oc2ccccc2)cc1` [(R)-3, (R)-N-4′-Phenoxybenzyl 2-N-Acetamido-3-methoxypropionamide] here?
**A.** 10 to 30 mg/kg

**Q.** And the ED50 [4]?
**A.** 10 to 30 mg/kg

**Q.** What about the TD50 at 0.5 h [5] of the same molecule?
**A.** 30 to 100 mg/kg

**Q.** With `COC[C@@H](NC(C)=O)C(=O)NCc1ccc(Oc2cccc(F)c2)cc1` [(R)-4] as the molecule, how does the “6 Hz ED50” value [6] read?
**A.** ~10 [0.25–0.5] mg/kg

**Q.** What about the “MES ED50” value [7] of the same molecule?
**A.** <10 [0.25–4.0] mg/kg

**Q.** And the “Tox TD50 (behavioral toxicity)” value (behavioral toxicity)?
**A.** >10 [0.25–4.0] mg/kg

**Q.** For `COC[C@@H](NC(C)=O)C(=O)NCc1ccc(Oc2cccc(Cl)c2)cc1` [(R)-5, (R)-N-4′-((3″-Chloro)phenoxy)benzyl 2-N-Acetamido-3-methoxypropionamide], which “Effect on transition of VGSCs to the slow-inactivated state” value [8] is on record?
**A.** facilitated the transition of a majority of sodium channels into the slow-inactivated state

**Q.** For `COC[C@@H](NC(C)=O)C(=O)NCc1ccc(Oc2cccc(C(F)(F)F)c2)cc1` [(R)-7, (R)-N-4′-((3″-Trifluoromethyl)phenoxy)benzyl2-N-Acetamido-3-methoxypropionamide], which ED50 [4] is on record?
**A.** 10 to 100 mg/kg

**Q.** With `COC[C@@H](NC(C)=O)C(=O)NCc1ccc(Oc2cccc(OC)c2)cc1` [(R)-8, (R)-N-4′-((3″-Methoxy)phenoxy)benzyl 2-N-Acetamido-3-methoxypropionamide] as the molecule, how does the ED50 [4] read?
**A.** 30 to 100 mg/kg

**Q.** What does the source list for `COC[C@@H](NC(C)=O)C(=O)NCc1ccc(Oc2cccc(OC(F)(F)F)c2)cc1` [(R)-9, (R)-N-4′-((3″-Trifluoromethoxy)phenoxy)benzyl2-N-Acetamido-3-methoxypropionamide]?
**A.** Steady-state activation properties vs control [9]: no different; Direct inhibition of CYP1A2 (CYP1A2): little or no direct inhibition; Direct inhibition of CYP2B6 (CYP2B6): little or no direct inhibition; Direct inhibition of CYP2C8 (CYP2C8): little or no direct inhibition; Direct inhibition of CYP2C9 (CYP2C9): little or no direct inhibition; Direct inhibition of CYP2C19 (CYP2C19): little or no direct inhibition; Direct inhibition of CYP2D6 (CYP2D6): little or no direct inhibition; Direct inhibition of CYP3A4/5 (CYP3A4/5): little or no direct inhibition; Effect on hERG K+ channel activity (hERG K+ channel): did not affect

**Q.** What does the source list for `C[C@H](NCc1ccc(OCc2cccc(F)c2)cc1)C(N)=O` [(S)-2, (S)-2-(4′-((3″-fluoro)benzyloxy)benzyl)aminopropionamide]?
**A.** MES ED50 [10]: 4.1 (3.0–5.5) mg/kg; MES ED50 ([7]; 95% CI in parentheses): 12 (10–14) mg/kg; IC50 [2]: 13 µM

**Q.** With `O=C1NC(=O)C(c2ccccc2)(c2ccccc2)N1` [phenytoin] as the molecule, how does the “MES ED50” value ([7]; 95% CI in parentheses) read?
**A.** 28 (21–35) mg/kg

**Q.** And the “MES ED50” value [11]?
**A.** 2.4 (1.4–3.7) mg/kg
